{"source": "ChEMBL document CHEMBL3286250", "about": "“Oxirapentyns F-K from the marine-sediment-derived fungus Isaria felina KMM 4639” (J Nat Prod, 2014)", "key": {"Staphylococcus aureus": {"system": "Staphylococcus aureus", "experiment": "Antimicrobial activity against Staphylococcus aureus ATCC 21027 by agar diffusion method", "type": "functional, organism-based"}, "Candida albicans": {"system": "Candida albicans", "experiment": "Antimicrobial activity against Candida albicans KMM 455 by agar diffusion method", "type": "functional, organism-based"}, "Bacillus subtilis": {"system": "Bacillus subtilis", "experiment": "Antimicrobial activity against Bacillus subtilis KMM 430 by agar diffusion method", "type": "functional, organism-based"}, "Pseudomonas aeruginosa": {"system": "Pseudomonas aeruginosa", "experiment": "Antimicrobial activity against Pseudomonas aeruginosa KMM 433 by agar diffusion method", "type": "functional, organism-based"}, "Escherichia coli": {"system": "Escherichia coli", "experiment": "Antimicrobial activity against Escherichia coli ATCC 15034 by agar diffusion method", "type": "functional, organism-based"}, "[1]": {"experiment": "Cytotoxicity against CD1 mouse erythrocytes up to 100 uM after 46 hrs by MTS assay", "type": "cell-based", "settings": "erythrocyte"}, "HL-60": {"system": "HL-60", "experiment": "Cytotoxicity against human HL60 cells after 46 hrs by MTS assay", "type": "functional, cell-based", "settings": "HL-60, 46 h"}, "THP-1": {"system": "THP-1", "experiment": "Cytotoxicity against human THP1 cells after 46 hrs by MTS assay", "type": "functional, cell-based", "settings": "THP-1, 46 h"}, "[2]": {"experiment": "Cytotoxicity against CD1 mouse splenocytes up to 100 uM after 46 hrs by MTS assay", "type": "cell-based", "settings": "splenocyte"}}, "note": "The source made the active and inactive calls. The rule behind the calls is not given here.", "data": [{"smiles": "C=C(C)C#C[C@@]1(O)[C@@H](O)[C@H](O)[C@]2(OC(C)=O)C[C@@H](O)C(C)(C)O[C@H]2[C@@H]1O", "values": [{"measurement": "Activity", "setting": "Staphylococcus aureus", "result": "inactive"}, {"measurement": "Activity", "setting": "Candida albicans", "result": "inactive"}, {"measurement": "Activity", "setting": "Bacillus subtilis", "result": "inactive"}, {"measurement": "Activity", "setting": "Pseudomonas aeruginosa", "result": "inactive"}, {"measurement": "Activity", "setting": "Escherichia coli", "result": "inactive"}]}, {"smiles": "COC(=O)/C=C/C(O)=C1\\COCC(OC(C)=O)=C1C(=O)OC", "values": [{"measurement": "Activity", "setting": "[1]", "result": "Non-toxic"}, {"measurement": "IC50", "setting": "HL-60", "result": 4.3, "unit": "µM"}, {"measurement": "IC50", "setting": "THP-1", "result": 37.4, "unit": "µM"}, {"measurement": "Activity", "setting": "Staphylococcus aureus", "result": "inactive"}, {"measurement": "Activity", "setting": "Candida albicans", "result": "inactive"}, {"measurement": "Activity", "setting": "Bacillus subtilis", "result": "inactive"}, {"measurement": "Activity", "setting": "Pseudomonas aeruginosa", "result": "inactive"}, {"measurement": "Activity", "setting": "Escherichia coli", "result": "inactive"}, {"measurement": "Activity", "setting": "[2]", "result": "Non-toxic"}]}, {"smiles": "C=C(C)C#C[C@]12O[C@H]1[C@@H]1OC(C)(C)[C@H](OC(C)=O)C[C@@]1(O)[C@@H](O)[C@@H]2O", "values": [{"measurement": "Activity", "setting": "Staphylococcus aureus", "result": "inactive"}, {"measurement": "Activity", "setting": "Candida albicans", "result": "inactive"}, {"measurement": "Activity", "setting": "Bacillus subtilis", "result": "inactive"}, {"measurement": "Activity", "setting": "Pseudomonas aeruginosa", "result": "inactive"}, {"measurement": "Activity", "setting": "Escherichia coli", "result": "inactive"}]}, {"smiles": "CC(=O)O[C@@H]1C[C@]23O[C@H]2C2=C(C(=O)CC(C)(C)O2)[C@@H](O)[C@@H]3OC1(C)C", "values": [{"measurement": "Activity", "setting": "Staphylococcus aureus", "result": "inactive"}, {"measurement": "Activity", "setting": "Candida albicans", "result": "inactive"}, {"measurement": "Activity", "setting": "Bacillus subtilis", "result": "inactive"}, {"measurement": "Activity", "setting": "Pseudomonas aeruginosa", "result": "inactive"}, {"measurement": "Activity", "setting": "Escherichia coli", "result": "inactive"}]}, {"smiles": "C=C(C)C#C[C@]1(O)[C@@H](O)[C@@H]2OC(C)(C)[C@H](OC(C)=O)C[C@@]23O[C@H]3[C@@H]1O", "values": [{"measurement": "Activity", "setting": "Staphylococcus aureus", "result": "inactive"}, {"measurement": "Activity", "setting": "Candida albicans", "result": "inactive"}, {"measurement": "Activity", "setting": "Bacillus subtilis", "result": "inactive"}, {"measurement": "Activity", "setting": "Pseudomonas aeruginosa", "result": "inactive"}, {"measurement": "Activity", "setting": "Escherichia coli", "result": "inactive"}]}]}
